Test results reported in publication PMC3242765, “Inhibitors of Alphavirus Entry and Replication Identified with a Stable Chikungunya Replicon Cell Line and Virus-Based Assays” (PLoS ONE, 2011).
“And” between values parts separate entries of the source, which are not always exact repeats. Equal entries are not always repeated. Structures can show the parent of a compound that is named as a salt.

What was measured:
[1] = system: CHIKV replicon; assay: microbe, parasite or virus in culture; type: cell-based, Chikungunya virus (CHIKV)
[2] = system: SFV-Rluc

SMILES | CHIKV replicon % left [1] | SFV replication % left (surviving fraction, remaining percentage of SFV replication) [2]
CC(CN1c2ccccc2Sc2ccccc21)[N+](C)(C)CCO (stereo not drawn) [N-Hydroxyethylpromethazine chloride] | 85.9% | 102.2%
Cc1ccc(C(=O)NS(=O)(=O)c2ccc(N)cc2)cc1C [N-Sulfanilyl-3,4-xylamide] | 100.7% | 72.0%
CC(C)(C)NCC(O)COc1cccc2c1CC(O)C(O)C2 (stereo not drawn) [Nadolol] | 63.3% | 60.5%
CCn1cc(C(=O)O)c(=O)c2ccc(C)nc21 [Nalidixic acid] | 100.4% | 80.4%
COc1ccc2cc([C@H](C)C(=O)O)ccc2c1 [Naproxen] | 89.2% | 92.7%
COc1ccc(C(=O)Cc2c(CCN(C)C)cc3c(c2OC)OCO3)c(C(=O)O)c1OC [Narceine] | 70.7% | 118.3%
NC[C@@H]1O[C@H](O[C@H]2[C@@H](O)[C@H](O[C@@H]3[C@@H](O)[C@H](N)C[C@H](N)[C@H]3O[C@H]3O[C@H](CN)[C@@H](O)[C@H](O)[C@H]3N)O[C@@H]2CO)[C@H](N)[C@@H](O)[C@@H]1O.O=S(=O)(O)O [Neomycin sulfate] | 100.4% | 99.6%
NC(=O)c1cccnc1 [Nicotinamide] | 99.1% | 116.9%
O=C1CN=C(c2ccccc2)c2cc([N+](=O)[O-])ccc2N1 [Nitrazepam] | 98.8% | 46.0%
O=C1CN(/N=C/c2ccc([N+](=O)[O-])o2)C(=O)N1 [Nitrofurantoin] | 60.9% | 58.9%
NC(=O)N/N=C/c1ccc([N+](=O)[O-])o1 [Nitrofurazone] | 102.1% | 83.7%
CC(N)C(O)c1ccc(O)c(O)c1 (stereo not drawn) [Nordefrin hydrochloride] | 104.2% | 118.0%
CC(Cc1ccc(O)c(O)c1)C(C)Cc1ccc(O)c(O)c1 (stereo not drawn) [Nordihydroguaiaretic acid] | 28.3% | 35.6%
C#C[C@]1(O)CC[C@H]2[C@@H]3CCC4=CC(=O)CC[C@@H]4[C@H]3CC[C@@]21C [Norethindrone] | 97.1% | 107.8%
NCC(O)c1cccc(O)c1 (stereo not drawn) [Norfenefrine] | 96.6% | 126.3%
CNCCC=C1c2ccccc2CCc2ccccc21 [Nortriptyline hydrochloride] | 29.1% | 5.3%
COc1ccc2c(c1OC)C(=O)O[C@@H]2[C@H]1c2c(cc3c(c2OC)OCO3)CCN1C [Noscapine] | 78.4% | 103.5%
NCC(O)c1ccc(O)cc1 (stereo not drawn) [Octopamine hydrochloride] | 88.4% | 102.1%
CCCCCCCCOC(=O)c1cc(O)c(O)c(O)c1 [Octyl gallate] | 94.1% | 134.4%
C[C@@H]1O[C@@H](O[C@H]2C[C@@H](O)[C@]3(CO)[C@H]4[C@H](O)C[C@]5(C)[C@@H](C6=CC(=O)OC6)CC[C@]5(O)[C@@H]4CC[C@]3(O)C2)[C@H](O)[C@H](O)[C@H]1O [Ouabain] | 89.2% | 90.9%

SMILES | CHIKV replicon % left [1] | SFV replication % left (surviving fraction, remaining percentage of SFV replication) [2]
O=C1Nc2ccc(Cl)cc2C(c2ccccc2)=NC1O (stereo not drawn) [Oxazepam] | 80.3% | 79.1%
C=CCOc1ccccc1OCC(O)CNC(C)C (stereo not drawn) [Oxprenolol hydrochloride] | 84.3% | 92.4%
CCCCC1C(=O)N(c2ccccc2)N(c2ccc(O)cc2)C1=O (stereo not drawn) [Oxyphenbutazone] | 100.4% | 84.8%
COc1ccc(Cc2nccc3cc(OC)c(OC)cc23)cc1OC [Papaverine] | 78.2% | 99.3%
CC(C)(C)NC[C@H](O)COc1ccccc1C1CCCC1 [Penbutolol] | 39.4% | 45.0%
CCCC(C)C1(CC)C(=O)NC(=O)NC1=O (stereo not drawn) [Pentobarbital] | 104.3% | 70.5%
CCOc1ccc(NC(C)=O)cc1 [Phenacetin] | 100.8% and 94.3% | 71.8% and 80.6%
CCC1(c2ccccc2)C(=O)NC(=O)NC1=O [Phenobarbital sodium] | 70.8% | 88.1%
CCC1(c2ccccc2)C(=O)NC(=O)NC1=O [Phenobarbital] | 43.2% | 58.6%
O=C(Oc1ccccc1)c1ccccc1O [Phenyl salicylate] | 94.3% | 118.2%
CCCCC1C(=O)N(c2ccccc2)N(c2ccccc2)C1=O [Phenylbutazone] | 100.5% | 96.7%
CNC(C)Cc1ccc(O)cc1.CNC(C)Cc1ccc(O)cc1.O=S(=O)(O)O (stereo not drawn) [Pholedrine sulfate] | 81.5% | 92.8%
O=C(O)c1ccccc1C(=O)O [Phthalic acid] | 96.6% | 143.7%
CC(=O)NS(=O)(=O)c1ccc(NC(=O)c2ccccc2C(=O)O)cc1 [Phthalylsulfacetamide] | 85.4% | 110.6%
O=C(O)c1ccccc1C(=O)Nc1ccc(S(=O)(=O)Nc2nccs2)cc1 [Phthalylsulfathiazole] | 100.5% | 113.7%
CC(C)NCC(O)COc1cccc2[nH]ccc12 (stereo not drawn) [Pindolol] | 72.1% | 86.2%
CC(=O)Nc1ccc(OCC(O)CNC(C)C)cc1 (stereo not drawn) [Practolol] | 61.5% | 117.3%
C[C@]12C=CC(=O)C=C1CC[C@@H]1[C@@H]2[C@@H](O)C[C@@]2(C)[C@H]1CC[C@]2(O)C(=O)CO [Prednisolone] | 84.3% | 104.2%
C[C@]12C=CC(=O)C=C1CC[C@@H]1[C@@H]2C(=O)C[C@@]2(C)[C@H]1CC[C@]2(O)C(=O)CO [Prednisone] | 54.4% | 85.0%
